This note sets out measurements from patent publication US9840495B2, “Oxindole derivatives carrying a piperidyl-substituted azetidinyl substituent and use thereof for treating vasopressine-related diseases” (AbbVie Deutschland GmbH & Co. KG, priority 2013, dated 2017).

Counter-ions that a name gives are not always drawn. Some results are limits rather than exact numbers.

Assay [1] deals with human vasopressin V1a receptor (Homo sapiens, UniProt P37288). The experiment in a line: Vasopressin V1a receptor binding assay (125I-AVP displacement, CHO-K1 membranes). Conditions: selectivity quotient, human V1a vs human V1b receptor binding.
Chain of human vasopressin V1a receptor (P37288 whole entry): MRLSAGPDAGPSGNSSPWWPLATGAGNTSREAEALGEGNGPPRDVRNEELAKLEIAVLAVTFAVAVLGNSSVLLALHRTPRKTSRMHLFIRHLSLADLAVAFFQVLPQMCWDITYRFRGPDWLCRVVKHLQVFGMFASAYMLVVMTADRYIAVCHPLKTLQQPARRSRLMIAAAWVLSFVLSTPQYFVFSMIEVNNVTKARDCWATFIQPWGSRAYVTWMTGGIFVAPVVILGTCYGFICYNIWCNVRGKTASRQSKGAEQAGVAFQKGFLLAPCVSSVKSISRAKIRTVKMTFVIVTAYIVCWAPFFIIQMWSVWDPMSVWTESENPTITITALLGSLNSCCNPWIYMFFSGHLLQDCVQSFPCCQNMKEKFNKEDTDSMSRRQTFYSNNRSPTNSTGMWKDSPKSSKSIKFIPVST
For assay [2], the target named is T1, human vasopressin V1b receptor (Homo sapiens, UniProt P47901).
T1 sequence (P47901 1-424): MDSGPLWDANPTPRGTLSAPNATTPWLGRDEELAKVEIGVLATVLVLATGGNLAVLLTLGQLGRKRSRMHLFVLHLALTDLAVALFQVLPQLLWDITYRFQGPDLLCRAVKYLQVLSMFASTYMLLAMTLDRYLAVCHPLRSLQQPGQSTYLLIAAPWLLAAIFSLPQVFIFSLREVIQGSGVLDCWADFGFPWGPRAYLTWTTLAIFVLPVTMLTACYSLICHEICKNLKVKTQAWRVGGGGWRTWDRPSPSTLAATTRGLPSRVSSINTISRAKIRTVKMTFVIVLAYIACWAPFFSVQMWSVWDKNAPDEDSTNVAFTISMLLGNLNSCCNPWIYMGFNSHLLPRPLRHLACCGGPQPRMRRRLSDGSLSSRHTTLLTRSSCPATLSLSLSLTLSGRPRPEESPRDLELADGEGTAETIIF
The experiment in a line: biochemical.

By Ki is commonly meant the dissociation constant of the complex between target and ligand, obtained from inhibition or displacement. The low end stands for higher affinity, the high end for lower affinity. Take `COc1ccc(S(=O)(=O)N2C(=O)[C@@](NC(=O)N3CC(N4CCC(N(C)C5COC5)CC4)C3)(c3cccnc3OC)c3cc(C#N)ccc32)cc1` [Example 35, (S)—N-(5-cyano-1-((4-methoxyphenyl)sulfonyl)-3-(2-methoxypyridin-3-yl)-2-oxoindolin-3-yl)-3-(4-(methyl(oxetan-3-yl)amino)piperidin-1-yl)azetidine-1-carboxamide]: the “Ki(h-V1a)/Ki(h-V1b)” value in assay [1] is listed as “++ (25-75)”. Moreover, the Ki in assay [2] fell in the range of 1 to 10 nM.
The like results for `CCOc1ncccc1[C@]1(NC(=O)N2CC(N3CCC(N4CCOCC4)CC3)C2)C(=O)N(S(=O)(=O)c2ccc(OC)cn2)c2ccc(C#N)cc21` [Example 36, (S)—N-(5-Cyano-3-(2-ethoxypyridin-3-yl)-1-((5-methoxypyridin-2-yl)sulfonyl)-2-oxoindolin-3-yl)-3-(4-morpholinopiperidin-1-yl)azetidine-1-carboxamide×TFA] were, in that order, “+ (10-<25)” and 1 to 10 nM.
The like results for `CCOc1ncccc1[C@]1(NC(=O)N2CC(N3CCC(N4CCOCC4)CC3)C2)C(=O)N(S(=O)(=O)c2ccccc2OC)c2ccc(C#N)cc21` [Example 37, (S)—N-(5-Cyano-3-(2-ethoxypyridin-3-yl)-1-((2-methoxyphenyl)sulfonyl)-2-oxoindolin-3-yl)-3-(4-morpholinopiperidin-1-yl)azetidine-1-carboxamide] were, in that order, “+++ (>75)” and 1 to 10 nM.
In the same order, the values of `COc1ccc(S(=O)(=O)N2C(=O)[C@@](NC(=O)N3CC(N4CCC(N(C(C)C)C5COC5)CC4)C3)(c3cccnc3OC)c3cc(C#N)ccc32)c(OC)c1` [Example 38, (S)—N-(5-Cyano-1-((2,4-dimethoxyphenyl)sulfonyl)-3-(2-methoxypyridin-3-yl)-2-oxoindolin-3-yl)-3-(4-(isopropyl(oxetan-3-yl)amino)piperidin-1-yl)azetidine-1-carboxamide] are “+ (10-<25)” and 10 to 100 nM.
Regarding `CCOc1ncccc1[C@]1(NC(=O)N2CC(N3CCC(N4CC(F)(F)C4)CC3)C2)C(=O)N(S(=O)(=O)c2ccc(OC)cc2OC)c2ccc(C#N)cc21` [Example 39, (S)—N-(5-Cyano-1-((2,4-dimethoxyphenyl)sulfonyl)-3-(2-ethoxypyridin-3-yl)-2-oxoindolin-3-yl)-3-(4-(3,3-difluoroazetidin-1-yl)piperidin-1-yl)azetidine-1-carboxamide], the “Ki(h-V1a)/Ki(h-V1b)” value in assay [1] was “+++ (>75)”. Moreover, the Ki in assay [2] lay within 10 to 100 nM.
On to `CCOc1ncccc1[C@]1(NC(=O)N2CC(N3CCC(N4CCC(F)(F)CC4)CC3)C2)C(=O)N(S(=O)(=O)c2ccc(OC)cc2OC)c2ccc(C#N)cc21` [Example 40, (S)—N-(5-Cyano-1-((2,4-dimethoxyphenyl)sulfonyl)-3-(2-ethoxypyridin-3-yl)-2-oxoindolin-3-yl)-3-(4,4-difluoro-[1,4′-bipiperidin]-1′-yl)azetidine-1-carboxamide], for which, in assay [1], the “Ki(h-V1a)/Ki(h-V1b)” value was “+++ (>75)”. In assay [2], this molecule returned a Ki of under 1 nM.
In the same order, the values of `CCOc1ncccc1[C@]1(NC(=O)N2CC(N3CCC(N4CC(OC)C4)CC3)C2)C(=O)N(S(=O)(=O)c2ccc(OC)cc2OC)c2ccc(C#N)cc21` [Example 41, (S)—N-(5-Cyano-1-((2,4-dimethoxyphenyl)sulfonyl)-3-(2-ethoxypyridin-3-yl)-2-oxoindolin-3-yl)-3-(4-(3-methoxyazetidin-1-yl)piperidin-1-yl)azetidine-1-carboxamide] are “+++ (>75)” and 1 to 10 nM.
In the same order, the values of `CCOc1ncccc1[C@]1(NC(=O)N2CC(N3CCC(N4CCC(OC)CC4)CC3)C2)C(=O)N(S(=O)(=O)c2ccc(OC)cc2OC)c2ccc(C#N)cc21` [Example 42, (S)—N-(5-Cyano-1-((2,4-dimethoxyphenyl)sulfonyl)-3-(2-ethoxypyridin-3-yl)-2-oxoindolin-3-yl)-3-(4-methoxy-[1,4′-bipiperidin]-1′-yl)azetidine-1-carboxamide] are “+++ (>75)” and 1 to 10 nM.
The like results for `CCOc1ncccc1[C@]1(NC(=O)N2CC(N3CCC(N4CC(O)C4)CC3)C2)C(=O)N(S(=O)(=O)c2ccc(OC)cc2OC)c2ccc(C#N)cc21` [Example 43, (S)—N-(5-Cyano-1-((2,4-dimethoxyphenyl)sulfonyl)-3-(2-ethoxypyridin-3-yl)-2-oxoindolin-3-yl)-3-(4-(3-hydroxyazetidin-1-yl)piperidin-1-yl)azetidine-1-carboxamide] were, in that order, “+++ (>75)” and 1 to 10 nM.
Turning to `CCOc1ncccc1[C@]1(NC(=O)N2CC(N3CCC(N4CCC(O)CC4)CC3)C2)C(=O)N(S(=O)(=O)c2ccc(OC)cc2OC)c2ccc(C#N)cc21` [Example 44, (S)—N-(5-Cyano-1-((2,4-dimethoxyphenyl)sulfonyl)-3-(2-ethoxypyridin-3-yl)-2-oxoindolin-3-yl)-3-(4-hydroxy-[1,4′-bipiperidin]-1′-yl)azetidine-1-carboxamide], the “Ki(h-V1a)/Ki(h-V1b)” value in assay [1] is “+++ (>75)”. Further, the Ki in assay [2] was under 1 nM.
`COc1ccc(S(=O)(=O)N2C(=O)[C@@](NC(=O)N3CC(N4CCC(N5CCOCC5)CC4)C3)(c3cc(OC)ccc3OC)c3cc(C#N)ccc32)c(OC)c1` [Example 45, (S)—N-(5-Cyano-3-(2,5-dimethoxyphenyl)-1-((2,4-dimethoxyphenyl)sulfonyl)-2-oxoindolin-3-yl)-3-(4-morpholinopiperidin-1-yl)azetidine-1-carboxamide]: the “Ki(h-V1a)/Ki(h-V1b)” value in assay [1] is on record as “+ (10-<25)”. Further, in assay [2], the Ki was under 1 nM.
In the same order, the values of `COc1ccc(S(=O)(=O)N2C(=O)[C@@](NC(=O)N3CC(N4CCC(N(C)C5COC5)CC4)C3)(c3cc(OC)ccc3OC)c3cc(C#N)ccc32)c(OC)c1` [Example 46, (S)—N-(5-Cyano-3-(2,5-dimethoxyphenyl)-1-((2,4-dimethoxyphenyl)sulfonyl)-2-oxoindolin-3-yl)-3-(4-(methyl(oxetan-3-yl)amino)piperidin-1-yl)azetidine-1-carboxamide] are “++ (25-75)” and under 1 nM.
